Source: the NIST ThermoML archive (doi:10.1021/je200434a)

Conditions: 101.33 kPa, Liquid; for viscosity: Concentric cylinders viscometry; for mass density: Vibrating tube method

CCn1cc[n+](C)c1.COS(=O)(=O)[O-] [1-ethyl-3-methylimidazolium methylsulfate]
Conditions | mass density [kg/m3] | viscosity [mPa·s]
283.15 K | – | 169.5
288.15 K | – | 128.6
293.15 K | 1289.48 | 99.7
294.15 K | 1288.8 | –
295.15 K | 1288.1 | –
296.15 K | 1287.41 | –
297.15 K | 1286.71 | –
298.15 K | 1286.02 | 78.8
299.15 K | 1285.33 | –
300.15 K | 1284.64 | –
301.15 K | 1283.95 | –
302.15 K | 1283.26 | –
303.15 K | 1282.57 | 63.4
304.15 K | 1281.89 | –
305.15 K | 1281.2 | –
306.15 K | 1280.52 | –
307.15 K | 1279.84 | –
308.15 K | 1279.15 | 51.8
309.15 K | 1278.48 | –
310.15 K | 1277.8 | –
311.15 K | 1277.12 | –
312.15 K | 1276.44 | –
313.15 K | 1275.76 | 42.9
314.15 K | 1275.09 | –
315.15 K | 1274.41 | –
316.15 K | 1273.74 | –
317.15 K | 1273.07 | –
318.15 K | 1272.4 | 35.9
319.15 K | 1271.72 | –
320.15 K | 1271.05 | –
321.15 K | 1270.38 | –
322.15 K | 1269.71 | –
323.15 K | 1269.04 | 30.5
324.15 K | 1268.37 | –
325.15 K | 1267.71 | –
326.15 K | 1267.04 | –
327.15 K | 1266.38 | –
328.15 K | 1265.71 | 26.1
329.15 K | 1265.05 | –
330.15 K | 1264.39 | –
331.15 K | 1263.72 | –
332.15 K | 1263.06 | –
333.15 K | 1262.4 | 22.6
334.15 K | 1261.74 | –
335.15 K | 1261.08 | –
336.15 K | 1260.42 | –
337.15 K | 1259.76 | –
338.15 K | 1259.1 | 19.7
339.15 K | 1258.44 | –
340.15 K | 1257.78 | –
341.15 K | 1257.13 | –
342.15 K | 1256.47 | –
343.15 K | 1255.81 | 17.3
344.15 K | 1255.15 | –
345.15 K | 1254.5 | –
346.15 K | 1253.84 | –
347.15 K | 1253.19 | –
348.15 K | 1252.54 | 15.3
349.15 K | 1251.88 | –
350.15 K | 1251.23 | –
351.15 K | 1250.58 | –
352.15 K | 1249.93 | –
353.15 K | 1249.28 | 13.6
354.15 K | 1248.63 | –
355.15 K | 1247.98 | –
356.15 K | 1247.33 | –
357.15 K | 1246.68 | –
358.15 K | 1246.03 | 12.2
359.15 K | 1245.38 | –
360.15 K | 1244.74 | –
361.15 K | 1244.09 | –
362.15 K | 1243.44 | –
363.15 K | 1242.8 | 11
368.15 K | – | 9.9
373.15 K | – | 9
